Test results as given in patent publication US20220105147A1, “CROTON LECHLERI COMPOSITIONS FOR USE IN THE TOPICAL TREATMENT OF ACUTE BACTERIAL SKIN OR SKIN STRUCTURE INFECTION” (priority 2019, published 2022).
Values after ≈ are worked out from the molar mass of the structure shown.

How the values were obtained:
[1] = test system: Enterococcus faecalis (ATCC 29212); test: Agar Well Diffusion Assay (K-B disks); format: cell-based; conditions: EFAECL; K-B disk, 25 uL, dilutions in DMSO; width of zone; one value per test date
Description: An Agar Well Diffusion Assay pilot evaluation of AB-101 BRM was conducted to seek an initial signal of the activity of AB-101 BRM against various bacteria. AB-101 BRM was tested against the following bacterial species: • Streptococcus pneumoniae (ATCC 49619) (SPNEU) Gram (+) • Streptococcus pyogenes (clinical isolate) (GABHS) Gram (+) • Enterococcus faecalis (ATCC 29212) (EFAECL) Gram (+) • Coagulase-negative Staphylococcus (clinical isolate) (CNS) Gram (+) • Escherichia coli (ATCC 25922) (EC) Gram (−) • Pseudomonas aeruginosa (ATCC 27853) (PAER) Gram (−) • Klebsiella pneumoniae (ATCC 700603) (KPNEU) Gram (−) • Staphylococcus aureus (ATCC […]) (SAUR) Gram (+) • Methicillin-resistant Staphylococcus aureus (ATCC 49476) (MRSA) Gram (+)
Isolates were subcultured the day before the Agar Well Diffusion Assay was performed. On the day of the assay, a bacterial suspension (0.08-0.12 MacFarland units) of each bacteria isolate was made in Trypticase Soy Broth (TSB), and these suspensions were used to plate a lawn of bacterial organisms on Mueller-Hinton agar or Mueller-Hinton sheep's blood agar. A control antibiotic Kirby-Bauer (K-B) disk plus K-B disks containing 25 uL of AB-101 dilutions were placed on the plates, and the plates were incubated overnight. The next day, the width of the zone of growth inhibition surrounding each K-B disk was recorded (in mm). […]

[2] = test system: MSSA and MRSA strains (Mupirocin-resistant and Mupirocin-susceptible); test: In vitro MIC, panel of MSSA and MRSA strains; format: cell-based, Staphylococcus aureus; conditions: for MIC: Staphylococcus aureus
Excerpt: (§1) Measures included the minimum inhibitory concentration (MIC) which is the lowest concentration of AB-101 that prevents visible growth of the bacterium or pathogen, and minimum bactericidal concentration (MBC) which is the lowest concentration of an antibacterial agent required to kill a bacterium.

[3] = test system: MSSA and MRSA strains (Mupirocin-resistant and Mupirocin-susceptible); test: In vitro MBC, panel of MSSA and MRSA strains; format: cell-based, Staphylococcus aureus; conditions: purified extract of taspine
Excerpt: as §1

[4] = ATCC 29213 / MRSA / MSSA, strain ATCC 29213, QC control

Q: How did the “Zone of Inhibition (MM)” value [1] turn out when CC1(C)S[C@@H]2[C@H](NC(=O)[C@H](N)c3ccccc3)C(=O)N2[C@H]1C(=O)O [AMP, Ampicillin] was run?
A: The value was “AMP 8 MM”.

Q: With COc1cccc(OC)c1C(=O)N[C@@H]1C(=O)N2[C@@H]1SC(C)(C)[C@@H]2C(=O)O [Methicillin] as the compound, how does the MIC [2, 4] read?
A: Its MIC is 1 to 2 µg/mL (≈ 2.63 to 5.26 µM).

Q: C/C(=C\C(=O)OCCCCCCCCC(=O)O)C[C@@H]1OC[C@H](C[C@@H]2O[C@H]2[C@@H](C)[C@H](C)O)[C@@H](O)[C@H]1O [Mupirocin] was tested. Which MIC [2, 4] did it give?
A: Its MIC is 0.25 to 0.5 µg/mL (≈ 0.499 to 0.999 µM).

Q: What about the MIC ([2]; strain 1674606, MupirocinR, MSSA) of the same compound?
A: The MIC was over 256 µg/mL.

Q: And the MIC ([2]; strain 1674607, MupirocinR, MRSA)?
A: The MIC was over 256 µg/mL.

Q: And the MIC ([2]; strain CDC 227, MupirocinS, MRSA)?
A: Its MIC is 0.25 to 0.5 µg/mL (≈ 0.499 to 0.999 µM).

Q: And the MIC ([2]; strain CDC 462, MupirocinS, MSSA)?
A: The MIC was at most 0.25 µg/mL.

Q: And the MIC ([2]; strain CDC 464, MupirocinS, MSSA)?
A: Its MIC is at most 0.25 µg/mL.

Q: And the MIC ([2]; strain CDC 484, MupirocinS, MSSA)?
A: Its MIC is at most 0.25 µg/mL.

Q: And the MIC ([2]; strain CDC 485, MupirocinS, MSSA)?
A: Its MIC is at most 0.25 µg/mL.

Q: For COc1ccc2c(=O)oc3c(OC)cc(CCN(C)C)c4c(=O)oc1c2c34 [Taspine, taspine], which “activity against MSSA and MRSA (MBC)” value [3] is on record?
A: Its value is “does not have activity”.

Q: What about the “activity against MSSA and MRSA (MIC)” value ([2]; highest concentration tested 50% relative to AB-101 = 10 μg/mL) of the same compound?
A: Its value is “does not have activity”.

Q: With Gentamicin [GM] as the compound, how does the “Zone of Inhibition (MM)” value [1] read?
A: Its value is “GM 5 MM”.
